Assay results: PMC12566046, “Arylpiperazinyl-Benzocycloheptapyrrole-Carboxamides Endowed with Dual Anticancer and Antiviral Activities” (Molecules, 2025)
Where two headings read alike, the source gives them in different places.

Key:
[1] = tested on: NCI cancer panel (all cell lines); experiment: NCI-60 five-dose assay, overall mean graph midpoint (MG_MID); format: cell-based, human; conditions: Homo sapiens
Experimental: (§1) Due to these preliminary results, six compounds, 1, 5, 10, 11, 17, and 20, were selected for the five-dose screen NCI-programme against the same panel of tumour cell lines.
(§2) Next, a mean graph midpoint (MG_MD) was calculated for compounds 1, 5, 10, 11, 17, and 20 and reported as waterfall graphs GI50, TGI, and LC50 in the Supplementary Materials (Figures S69–S86). In Table 9, we reported the average GI50 for the nine-cancer panels, underlining both the activity and selectivity for compounds 1, 10, 11, and 20.

[2] = tested on: SARS-CoV-2 VR PV10734 (strain Milano); experiment: microbe, parasite or virus in culture; format: cell-based; conditions: Severe acute respiratory syndrome coronavirus 2; preliminary screening (50, 5, 0.5 μM), Vero TMPRSS; read-out: SARS‐CoV‐2/Vero TMPRSS EC50
in vitro [3] = conditions: dog
Prostate Cancer panel = experiment: NCI-60 five-dose assay, panel-level GI50 (mean graph midpoint); format: cell-based, human; conditions: Homo sapiens; Prostate Cancer panel average; read-out: GI50 mean graph midpoint (MG_MID)
Experimental: as §1, §2

Ovarian Cancer panel = experiment: as above; format: cell-based, human; conditions: Homo sapiens; Ovarian Cancer panel average; read-out: GI50 mean graph midpoint (MG_MID)
Experimental: as §1, §2

Breast Cancer panel = experiment: as above; format: cell-based, human; conditions: Homo sapiens; Breast Cancer panel average; read-out: GI50 mean graph midpoint (MG_MID)
Experimental: as §1, §2

[4] = tested on: Non-Small Cell Lung Cancer panel; experiment: as above; format: cell-based, human; conditions: Homo sapiens; Non-Small Cell Lung Cancer panel average; read-out: GI50 mean graph midpoint (MG_MID)
Experimental: as §1, §2

Renal Cancer panel = experiment: as above; format: cell-based, human; conditions: Homo sapiens; Renal Cancer panel average; read-out: GI50 mean graph midpoint (MG_MID)
Experimental: as §1, §2

CNS Cancer panel = experiment: as above; format: cell-based, human; conditions: Homo sapiens; CNS Cancer panel average; read-out: GI50 mean graph midpoint (MG_MID)
Experimental: as §1, §2

[5] = tested on: KM12 (colon cancer cell line); experiment: NCI-60 five-dose assay; format: cell-based, human; conditions: Homo sapiens, five doses (10^−4–10^−8 M), read-out: Growth inhibition 50 (GI50)
[6] = tested on: IAV strain A/PR/8/34 (H1N1); conditions: preliminary screening
[7] = tested on: HCT-15 (colon cancer cell line); experiment: NCI-60 five-dose assay; format: cell-based, human; conditions: Homo sapiens, five doses (10^−4–10^−8 M), read-out: Growth inhibition 50 (GI50)
[8] = Cytotoxicity on uninfected Huh-7 cells (WST-8, crystal violet); conditions: human, uninfected Huh-7 cells
Experimental: The toxicity of the compounds at the same concentration was tested on the same cells in parallel.
Cytotoxic effects were evaluated on uninfected cells using the WST-8 assay (Orangu, Cell Guidance Systems, Cambridge, UK) and the crystal violet assay [23]. […] Huh-7, MDCK, and Vero TMPRSS cells were seeded at 1 × 10^4, 1.5 × 10^4, and 1.2 × 10^4 cells/well, respectively, and incubated for 48 h (Huh-7 and MDCK) or 24 h (VERO TMPRSS), following conditions matching those of the corresponding antiviral assays in terms of timing and culture medium. At the end of incubation, the medium was replaced with a 10% WST-8 solution in DMEM and incubated for 1 h at 37 °C. Optical density (OD) was then measured at 450 nm using a Varioskan LUX plate reader (ThermoFisher Scientific, Milano, Italy). Subsequently, cells were fixed with 4% buffered formalin solution (Merck®, Darmstadt, Germany), stained with 1% crystal violet (Merck®, Darmstadt, Germany), and the dye was solubilized in 30% acetic acid for 30 min under shaking. OD was then measured at 595 nm as an additional readout of cell viability. The percentage of viability at each concentration was calculated using the formula:% viability = 100 × (ODcompound/ODuntreated control) where ODcompound and ODuntreated are the OD of the cells treated with compound or DMSO, respectively.
The CC50 value was determined by nonlinear regression analysis on GraphPad Prism 7 (San Diego, CA, USA).

[9] = tested on: ZIKV, strain Brazil/2016/INMI1; experiment: ZIKV viral yield reduction assay on Huh-7 cells; format: cell-based, Zika virus; conditions: Zika virus; preliminary screening (50, 5, 0.5 μM), Huh-7; read-out: ZIKV/Huh‐7 EC50
How it was run: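 Huh-7 cells infected with ZIKV at MOI 1 for 2 h at 37 °C, compounds added right after infection in duplicate at 50, 5 and 0.5 μM. Supernatants taken at 48 h and titrated by plaque assay on VERO E6 under carboxymethyl cellulose with crystal violet staining. % inhibition from PFU/mL versus DMSO-treated control; SI = CC50/EC50.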

in vitro [10] = conditions: African green monkey
[11] = tested on: HT29 (colon cancer cell line); experiment: NCI-60 five-dose assay; format: cell-based, human; conditions: Homo sapiens, HT-29, five doses (10^−4–10^−8 M), read-out: Growth inhibition 50 (GI50)
[12] = tested on: MDA-MB-468 (breast cancer cell line); experiment: NCI-60 single-dose assay; format: cell-based, human; conditions: human
How it was run: (§3)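 Read-out is cytotoxic activity from a single-concentration test; the panel spans nine human cancer types, including leukemia, lung, colon and renal.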

[13] = tested on: MOLT-4 (leukemia cell line); experiment: NCI-60 single-dose assay; format: cell-based, human; conditions: Homo sapiens, MOLT-4, read-out: growth inhibition (GI%) and cytotoxicity (negative values)
How it was run: as §3

[14] = tested on: SK-MEL-5 (melanoma cell line); experiment: NCI-60 single-dose assay; format: cell-based, human; conditions: human
How it was run: as §3

[15] = MG_MID over all panels, read-out: GI50 mean graph midpoint (MG_MID)

SMILES	GI50 [1, 15] [µM]	GI50 ([1]; all cell lines, read-out: MG_MID Log10 GI50 (converted)) [µM]	EC50 [2] [µM]	CC50 (in vitro [3]) [µM]	GI50 (Prostate Cancer panel) [µM]	GI50 (Ovarian Cancer panel) [µM]	GI50 (Breast Cancer panel) [µM]	GI50 [4] [µM]	GI50 (Renal Cancer panel) [µM]	GI50 (CNS Cancer panel) [µM]	GI50 [5] [µM]	IAV/MDCK SI [6]	GI50 [7] [µM]	CC50 at 48 h [8] [µM]	EC50 [9] [µM]	CC50 at 24 h (in vitro [10]) [µM]	GI50 [11] [µM]	growth inhibition (GI%) and cytotoxicity (negative values) [12] [%]	inhibition at 10 µM [13] [%]	growth inhibition (GI%) and cytotoxicity (negative values) [14] [%]
CCN1CCC[C@H]1CNC(=O)c1[nH]c2c(c1Cl)CCCc1ccccc1-2 [Compound 1, (S)-3-Chloro-N-(1-ethyl-2-pyrrolidinylmethyl)-5,6-dihydro-4H-benzo[6,7]cyclohepta[1,2-b]pyrrol-2-carboxamide]	4.26	4.79	9.61	1.75	8.13	2.29	4.47	7.24	5.25	4.79	3.02	0.10	2.31	3.88	2.07	14.7	1.86	−3.75	96.2	−88.03
O=C(NCCCN1CCN(Cc2ccccc2)CC1)c1c(Cl)[nH]c2c1CCCc1ccccc1-2 [Compound 20, N-(3-(4-Benzylpiperazin-1-yl)propyl)-2-chloro-1,4,5,6-tetrahydrobenzo[6,7]cyclohepta[1,2-b]pyrrole-3-carboxamide]	6.76	–	17.7	6.12	9.55	12	6.92	10.5	9.12	12	9.38	0.35	7.78	6.23	4.74	15.4	4.03	−29.55	< 60	−89.68
